From publication PMC4977052, “On the Utility of ToxCast™ and ToxPi as Methods for Identifying New Obesogens” (Environmental Health Perspectives, 2016)
“And” between values parts separate entries of the source, which are not always exact repeats. Equal entries are not always repeated. “Also recorded” adds a separate entry of the source. Where two headings read alike, the source gives them in different places.

Columns and labels:
PPRE = test system: PPRE; set-up: method as in Knudsen et al. 2011; conditions: ToxCast Phase I 2011 release; NA = not active; ref Knudsen et al. 2011; read-out: ATGC PPRE AC50; cited from earlier work
3T3-L1 preadipocytes = assay: 3T3-L1 adipogenesis assay (lipid accumulation, adipogenic gene expression); assay type: cell-based; conditions: 0.02-20 μM, 5 days after MDI induction
Procedure: 3T3-L1 cells (ATCC) were maintained in high-glucose DMEM supplemented with 10% fetal bovine serum, 2 mM L-glutamine, 50 IU/mL penicillin, and 50 μg/mL streptomycin. A total of 2 × 10^4 cells per well were seeded in 12-well plates. After 48 hr, cells were exposed to the adipogenic cocktail MDI (500 μM isobutylmethylxanthine, 0.25 nM dexamethasone and 5 μg/mL insulin), 8 μg/mL biotin and 8 μg/mL pantothenate for 2 days. Induction media was removed and cells were exposed to test chemicals during 5 days, replacing the media every 2 days. Rosiglitazone (ROSI) and tributyltin (TBT) were used as positive controls at 100 nM and 50 nM final concentrations, respectively. All ToxCast™ chemicals were tested at 0.02, 0.2, 2, and 20 μM, and DMSO concentration was maintained at 0.1% across all treatments. If the chemical was toxic at 20 μM, we repeated the experiment at 10 μM.
Cells were either fixed in 3.7% formaldehyde in phosphate-buffered saline (PBS) for 30 min at room temperature (RT) for lipid quantitation, or homogenized in TriPure (Roche, Mannheim, Germany) for gene expression analysis. For lipid quantitation, fixed cells were washed twice with PBS and maintained in PBS overnight at 4°C to release residual phenol red. Background of cells were measured prior to staining. Cells were stained with 1 μg/mL Nile red (CAS No. 7385-67-3) (to detect lipid accumulation) and 1 μg/mL Hoechst 33342 (ThermoFisher Scientific) (to detect nuclei as a surrogate for cell number) in PBS for 15 min in the dark at RT and washed twice with PBS. […] Background values of Hoechst and Nile red were subtracted from the RFUs after staining and the ratio RFUNile Red:RFUHoechst was calculated. Data are represented as mean ± SEM. Total RNA was isolated using TriPure (Roche) as recommended by the manufacturer. Reverse transcription and quantitative real-time RT-PCR (QPCR) were performed using Transcriptor RT and SYBR® Green Master Mix (Roche). cDNA was quantitated in a LightCycler® 480 System (Roche Diagnostics, Basel, Switzerland) using primer sets listed in Table S4. Each primer set amplified a single band as determined by gel electrophoresis and melting curve analysis. QPCR data were analyzed using the 2^ΔΔCt method ([Livak and Schmittgen 2001]) relative to ribosomal protein 36b4, normalizing to 0.1% DMSO vehicle. Error bars represent the SEM from four to six biological replicates calculated using standard propagation of error ([Bevington and Robinson 2003]).

GAL4-mPPARγ = target: T1, GAL4-mPPARγ (Mus musculus, UniProt P37238); assay: GAL4-mPPARγ activation, transient transfection luciferase reporter in COS7 cells; assay type: cell-based
T1 construct: expressed in transfected cells; host or cells: COS7
Procedure: (§1) pCMX-Gal4, pCMX-Gal4-mPPARγ, and pCMX-Gal4-hRXRα were previously described ([Grün et al. 2006]). Transient transfections were performed in COS7 cells as described ([Chamorro-García et al. 2012]). Briefly, COS7 cells were seeded at 15,000 cells per well in 96-well tissue culture plates in 10% calf bovine serum. The following day, cells were transfected in Opti-MEM at ~ 90% confluency. One microgram of CMX-GAL4 effector plasmid was co-transfected with 5 μg tk-(MH100)4-luciferase reporter and 5 μg of CMX-β-galactosidase transfection control plasmids in Opti-MEM® using Lipofectamine® 2000 reagent (Invitrogen™ Life Technologies, Carlsbad, CA, USA), following the manufacturer’s recommended protocol. All chemicals were solvated in dimethyl sulfoxide (DMSO). After overnight incubation, the medium was replaced with Dulbecco’s Modified Eagle Medium (DMEM; HyClone, Logan, UT, USA), 10% resin charcoal stripped fetal bovine serum (FBS) plus ligands at concentrations indicated in the figure legends for an additional 24 hr. DMSO concentration was maintained at 0.05% across all chemical treatments. Cells were lysed and assayed for luciferase and β-galactosidase activity as previously described ([Forman et al. 1995]). All transfections were performed in triplicate and reproduced in multiple experiments. Data are reported as fold induction or reduction over vehicle ([…]) controls ± SEM (standard error of the mean) using standard propagation of error ([Bevington and Robinson 2003]). […] The EC50, EC10, IC50, and IC10 values from NCGC and ToxCast™ are reported from gain AC50 and AC10 values in the ToxCast™ 2014 release ([Filer et al. 2014]).
Figure 1 ToxCast™ Chemical Activity on PPARγ. The ability of a graded dose series of ToxCast™ chemicals to (A) activate or (B) antagonize GAL4-mPPARγ was tested in transiently transfected COS7 cells. (A, B) Data points are averages of triplicate transfections (three biological replicates). […] Data are depicted as (A) fold induction or (B) reduction over vehicle (0.05% DMSO) controls ± SEM. (A) ToxCast™ chemicals were tested in 3-fold serial dilutions from 100 μM through 0.137 μM, with the final data point being 0.05% DMSO. Rosiglitazone serves as a positive control activator. (B) ToxCast™ chemicals were tested in 3-fold serial dilutions from 100 μM, in competition with 50 nM rosiglitazone (Rosi). […] (C) EC50, EC10, IC50, and IC10 values calculated from A and B are reported and compared to commercial assays (see Figure S1). Note: ATG, Attagene GAL-PPARγ activation assay; NCGC, GeneBLAzer® agonist (EC values) or antagonist (IC values) assays. Triphenyltin was previously published ([Kanayama et al. 2005]).
(§2) Figure 4 ToxPi Chemical Activity on PPARγ and RXRα. The ability of a graded dose series of ToxPi chemicals to activate (A) GAL4-mPPARγ or (B) GAL4-hRXRα was tested in transiently transfected COS7 cells. (A, B) Data points are averages of triplicate transfections (three biological replicates). […] ToxPi chemicals were tested in 3-fold serial dilutions from 100 μM through 0.137 μM, with the final data point being 0.05% DMSO. Data are depicted as fold induction over vehicle (0.05% DMSO) controls ± SEM. (A) Rosiglitazone serves as a positive control activator for GAL4-mPPARγ. (B) LG100268 (2-[1-(3,5,5,8,8-Pentamethyl-5,6,7,8-tetrahydro-2-naphthyl)cyclopropyl]pyridine-5-carboxylic acid) serves as a positive control activator for GAL4-hRXRα. (C) EC50 and EC10 values calculated from A and B are reported and compared to other assays (see Figure S1). ATG, Attagene GAL-PPARγ or GAL-RXRα activation assay; NCGC, GeneBLAzer® GAL-PPARγ or GAL-RXRα activation assays. Triphenyltin was previously published ([Kanayama et al. 2005]).

PPARγ [1] = conditions: cited from earlier work; for AC50: NA = not active
LXRβ = test system: LXRβ; set-up: method as in Knudsen et al. 2011; conditions: ToxCast Phase I 2011 release; NA = not active; ref Knudsen et al. 2011; read-out: ATGT LXRβ AC50; cited from earlier work
PPARγ [2] = test system: PPARγ; set-up: method as in Filer et al. 2014; conditions: PPARγ; NA = not active; ref Filer et al. 2014; read-out: NCGC Antag. AC50, 2014 Release; cited from earlier work
LXRα = test system: LXRα; set-up: method as in Knudsen et al. 2011; conditions: ToxCast Phase I 2011 release; NA = not active; ref Knudsen et al. 2011; read-out: ATGT LXRα AC50; cited from earlier work
GAL4-hRXRα = target: T2, GAL4-hRXRα (Homo sapiens, UniProt P19793); assay: GAL4-hRXRα activation, transient transfection luciferase reporter in COS7 cells; assay type: cell-based; conditions: COS7, 100 μM through 0.137 μM
T2 construct: expressed in transfected cells; host or cells: COS7
Procedure: as §1, §2

Human PPARγ = conditions: PPARγ direct binding; NA = not active; ref Filer et al. 2014; read-out: NVS Agonist AC50, 2014 Release; cited from earlier work
C/EBP = test system: C/EBP; set-up: method as in Knudsen et al. 2011; conditions: ToxCast Phase I 2011 release; NA = not active; ref Knudsen et al. 2011; read-out: ATGC CEBP AC50; cited from earlier work
[3] = Cos-7 transient transfection, PPARγ or RXRα activation assays (Table 2)
[4] = PPARγ, ref Filer et al. 2014, read-out: ATG Agonist AC50, 2014 Release
[5] = PPARγ, ref Knudsen et al. 2011, read-out: ATG Agonist AC50, 2011 Release

T1 sequence (P37238 with tags, fused parts or gaps limits assumed): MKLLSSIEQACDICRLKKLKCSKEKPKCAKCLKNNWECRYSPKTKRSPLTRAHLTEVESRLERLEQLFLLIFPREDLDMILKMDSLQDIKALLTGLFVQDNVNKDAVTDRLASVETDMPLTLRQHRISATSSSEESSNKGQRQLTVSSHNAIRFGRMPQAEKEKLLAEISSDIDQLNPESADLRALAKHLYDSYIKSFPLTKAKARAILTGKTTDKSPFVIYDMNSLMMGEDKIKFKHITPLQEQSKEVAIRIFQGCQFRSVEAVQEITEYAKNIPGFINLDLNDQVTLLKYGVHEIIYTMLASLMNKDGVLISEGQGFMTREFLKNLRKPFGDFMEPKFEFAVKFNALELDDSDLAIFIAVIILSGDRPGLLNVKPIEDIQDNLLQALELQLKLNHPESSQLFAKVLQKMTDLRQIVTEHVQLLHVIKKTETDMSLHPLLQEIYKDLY
T2 sequence (P19793 with tags, fused parts or gaps limits assumed): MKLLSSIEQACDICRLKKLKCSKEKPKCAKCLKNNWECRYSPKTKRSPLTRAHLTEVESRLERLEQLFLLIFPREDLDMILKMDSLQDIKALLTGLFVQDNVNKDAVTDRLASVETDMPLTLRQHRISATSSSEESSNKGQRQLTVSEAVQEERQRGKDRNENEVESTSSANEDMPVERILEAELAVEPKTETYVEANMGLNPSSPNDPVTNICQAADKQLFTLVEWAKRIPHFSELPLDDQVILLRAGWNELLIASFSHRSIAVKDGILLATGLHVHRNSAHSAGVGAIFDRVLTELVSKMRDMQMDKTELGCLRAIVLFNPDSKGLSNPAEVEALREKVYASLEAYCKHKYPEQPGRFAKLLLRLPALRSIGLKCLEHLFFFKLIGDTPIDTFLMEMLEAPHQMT

| Compound | AC50 (PPRE) [µM] | Adipogenesis 3T3-L1 (result in words) (3T3-L1 preadipocytes) | Activation COS7 (result in words), ToxPi chemicals (GAL4-mPPARγ; [3]) | AC50 (LXRβ) [µM] | AC50 (PPARγ [2]) [µM] | AC50 (LXRα) [µM] | AC50 (PPARγ [1]; [4]) | AC50 (PPARγ [1]; [5]) [µM] | further results |
| --- | --- | --- | --- | --- | --- | --- | --- | --- | --- |
| CC(C)(C)c1ccc(CSc2cnn(C(C)(C)C)c(=O)c2Cl)cc1 [Pyridaben] | 1.6 | strongly inhibited adipogenesis; also recorded: Inhibitor | PPARγ activator | – | – | – | – | – | AC50 (GAL4-mPPARγ): 3 µM; EC50 (GAL4-mPPARγ): 2.98 µM; Activation of GAL4-PPARγ (text) (GAL4-mPPARγ; COS7, 100 μM through 0.137 μM): activated PPARγ; PPARγ agonists: EC10, Fig 1A / Fig 4A (GAL4-mPPARγ; COS7, computed from EC50 in GraphPad Quick Calc): 0.53 µM; PPARγ agonists: EC10, ATG (PPARγ [1]; AC10, ToxCast 2014 release, ref Filer et al. 2014): 2.57 µM; AC50 (PPARγ [1]; ToxCast Phase I 2011 release, ref Knudsen et al. 2011, read-out: ATGT PPARγ AC50): 14 µM; EC50 (PPARγ [1]; gain AC50, ToxCast 2014 release, ref Filer et al. 2014, read-out: PPARγ agonists: EC50, ATG): 10.1 µM |
| CCc1nn(C)c(C(=O)NCc2ccc(C(C)(C)C)cc2)c1Cl [Tebufenpyrad] | 0.83 | Negative | Inactive | 0.46 | 23.1 | 0.36 | 2.6 µM | 4.9 | Activation COS7 (result in words), ToxCast PPARγ list (GAL4-mPPARγ; Cos-7 transient transfection, PPARγ activation or antagonism assays (Table 1, Table S6)): Inactive |
| O=C(O)COc1ccc(Cl)cc1Cl [2,4-D, 2,4-dichlorophenoxyacetic acid] | – | – | – | – | – | – | – | – | Activation of RXRα (GAL4-hRXRα): inactive |
| Cc1ccc(-c2c(Cl)nc(C#N)n2S(=O)(=O)N(C)C)cc1 [Cyazofamid] | 12 | Negative | – | 13 | 32.3 | 11 | 10.1 µM and 9.4 µM | 11 | Activation COS7 (result in words), ToxCast PPARγ list (GAL4-mPPARγ): Inactive; Activation COS7 (result in words), ToxPi chemicals (GAL4-mPPARγ): Inactive; AC50 (Human PPARγ): 9.6 µM; AC50 (C/EBP): 8.7 µM |
